Our source for the Emax, EC50 and fold change (FC) values is ChEMBL document CHEMBL4342477, “Single Nucleotide Polymorphisms in the Melanocortin His-Phe-Arg-Trp Sequences Decrease Tetrapeptide Potency and Efficacy” (ACS Med Chem Lett, 2020).

pEC50: −log10 of the molar value. Non-standard residues stand in square brackets, D forms with d. Residues, ends and D or L forms follow the SMILES beside them.

What all share (type): functional, cell-based
Test [1] addresses Melanocyte-stimulating hormone receptor (Mus musculus) (UniProt Q01727). Description: Agonist activity at mouse melanocortin receptor 1 expressed in HEK293 cells assessed as stimulation of cAMP accumulation at 100 uM incubated for 2 hrs by cAMP AlphaScreen assay relative to control. For orientation: Changes in cAMP serve as a functional read-out for many G protein-coupled receptors.

Test [2] deals with Melanocortin receptor 4 (Mus musculus, UniProt P56450). Nature of the test: Agonist activity at mouse melanocortin receptor 4 expressed in HEK293 cells assessed as stimulation of cAMP accumulation incubated for 2 hrs by cAMP Alpha-screen assay.
Test [3] deals with Melanocortin receptor 3 (Mus musculus, UniProt P33033). Description: Agonist activity at mouse melanocortin receptor 3 expressed in HEK293 cells assessed as stimulation of cAMP accumulation incubated for 2 hrs by cAMP Alpha-screen assay.
Test [4] addresses Melanocortin receptor 5 (Mus musculus) (UniProt P41149). Nature of the test: Agonist activity at mouse melanocortin receptor 5 expressed in HEK293 cells assessed as stimulation of cAMP accumulation at 100 uM incubated for 2 hrs by cAMP Alpha-screen assay relative to control.
For test [5], the target named is Melanocortin receptor 5 (Mus musculus, UniProt P41149). Description: Agonist activity at mouse melanocortin receptor 5 expressed in HEK293 cells assessed as stimulation of cAMP accumulation incubated for 2 hrs by cAMP Alpha-screen assay.
For test [6], the target named is T1, Melanocyte-stimulating hormone receptor (Mus musculus, UniProt Q01727). Description: Agonist activity at mouse melanocortin receptor 1 expressed in HEK293 cells assessed as stimulation of cAMP accumulation incubated for 2 hrs by cAMP AlphaScreen assay.
The target in test [7] is Melanocortin receptor 3 (Mus musculus) (UniProt P33033). Description: Agonist activity at mouse melanocortin receptor 3 expressed in HEK293 cells assessed as stimulation of cAMP accumulation at 100 uM incubated for 2 hrs by cAMP Alpha-screen assay relative to control.
Test [8] has as its target T1, Melanocyte-stimulating hormone receptor. Nature of the test: Agonist activity at mouse melanocortin receptor 1 expressed in HEK293 cells assessed as stimulation of cAMP accumulation incubated for 6 hrs by beta-galactosidase cAMP assay.
Test [9] addresses Melanocortin receptor 4 (Mus musculus) (UniProt P56450). Description: Partial agonist activity at mouse melanocortin receptor 4 expressed in HEK293 cells assessed as stimulation of cAMP accumulation incubated for 2 hrs by cAMP Alpha-screen assay relative to NDP-MSH.
Test [10] addresses Melanocortin receptor 5 (Mus musculus) (UniProt P41149). Description: Partial agonist activity at mouse melanocortin receptor 5 expressed in HEK293 cells assessed as stimulation of cAMP accumulation incubated for 2 hrs by cAMP Alpha-screen assay relative to NDP-MSH.
The target in test [11] is Melanocortin receptor 4 (Mus musculus) (UniProt P56450). Description: Agonist activity at mouse melanocortin receptor 4 expressed in HEK293 cells assessed as fold decrease in potency of stimulation of cAMP accumulation incubated for 2 hrs by cAMP Alpha-screen assay relative to Ac-His-DPhe-Arg-Trp-NH2.
The target in test [12] is Melanocortin receptor 3 (Mus musculus) (UniProt P33033). Nature of the test: Partial agonist activity at mouse melanocortin receptor 3 expressed in HEK293 cells assessed as stimulation of cAMP accumulation incubated for 2 hrs by cAMP Alpha-screen assay relative to NDP-MSH.
Test [13] deals with Melanocortin receptor 4 (Mus musculus) (UniProt P56450). Nature of the test: Agonist activity at mouse melanocortin receptor 4 expressed in HEK293 cells assessed as fold decrease in potency of stimulation of cAMP accumulation incubated for 2 hrs by cAMP Alpha-screen assay.
The target of test [14] is Melanocyte-stimulating hormone receptor (Mus musculus) (UniProt Q01727). Description: Agonist activity at mouse melanocortin receptor 1 expressed in HEK293 cells assessed as fold decrease in potency of stimulation of cAMP accumulation incubated for 2 hrs by cAMP AlphaScreen assay.
Chain of Melanocyte-stimulating hormone receptor (Mus musculus) (Q01727 whole entry, looked up): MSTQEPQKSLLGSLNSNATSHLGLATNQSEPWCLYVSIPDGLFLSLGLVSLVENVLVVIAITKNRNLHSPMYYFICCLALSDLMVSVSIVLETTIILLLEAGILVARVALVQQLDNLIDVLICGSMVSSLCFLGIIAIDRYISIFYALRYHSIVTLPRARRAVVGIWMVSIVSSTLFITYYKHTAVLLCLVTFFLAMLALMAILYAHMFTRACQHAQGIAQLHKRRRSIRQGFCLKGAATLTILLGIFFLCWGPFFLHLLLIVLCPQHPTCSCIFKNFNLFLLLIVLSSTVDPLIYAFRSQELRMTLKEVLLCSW

Chain of Melanocortin receptor 5 (P41149 whole entry): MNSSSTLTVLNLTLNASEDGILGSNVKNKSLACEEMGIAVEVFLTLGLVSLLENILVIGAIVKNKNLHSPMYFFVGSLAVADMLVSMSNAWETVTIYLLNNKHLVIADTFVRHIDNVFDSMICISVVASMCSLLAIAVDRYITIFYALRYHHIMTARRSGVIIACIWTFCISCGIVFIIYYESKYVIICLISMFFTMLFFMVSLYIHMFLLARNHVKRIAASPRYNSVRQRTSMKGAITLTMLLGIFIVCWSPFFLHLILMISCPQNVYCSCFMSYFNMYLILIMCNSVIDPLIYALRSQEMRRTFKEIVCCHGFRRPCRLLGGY
Chain of Melanocortin receptor 5 (Mus musculus) (P41149 whole entry): as above
Chain of Melanocortin receptor 4 (P56450 whole entry): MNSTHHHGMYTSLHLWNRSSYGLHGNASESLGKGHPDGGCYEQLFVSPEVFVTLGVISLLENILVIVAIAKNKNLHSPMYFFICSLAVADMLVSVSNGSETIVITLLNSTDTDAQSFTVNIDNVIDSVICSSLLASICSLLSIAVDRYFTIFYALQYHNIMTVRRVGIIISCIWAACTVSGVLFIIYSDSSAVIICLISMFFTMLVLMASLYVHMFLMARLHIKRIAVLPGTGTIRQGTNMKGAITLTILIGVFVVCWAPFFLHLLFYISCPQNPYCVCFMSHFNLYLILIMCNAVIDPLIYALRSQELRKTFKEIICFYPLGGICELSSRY
Chain of Melanocortin receptor 4 (Mus musculus) (P56450 whole entry): as above
Chain of Melanocortin receptor 3 (Mus musculus) (P33033 whole entry): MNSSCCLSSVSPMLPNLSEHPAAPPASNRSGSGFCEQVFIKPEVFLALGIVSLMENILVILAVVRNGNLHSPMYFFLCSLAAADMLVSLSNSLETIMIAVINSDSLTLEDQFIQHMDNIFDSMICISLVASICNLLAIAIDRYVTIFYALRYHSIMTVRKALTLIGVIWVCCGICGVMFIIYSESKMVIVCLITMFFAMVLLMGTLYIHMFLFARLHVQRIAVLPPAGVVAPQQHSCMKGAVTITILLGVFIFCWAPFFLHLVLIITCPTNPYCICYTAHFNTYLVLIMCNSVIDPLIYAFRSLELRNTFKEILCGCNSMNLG
Chain of Melanocortin receptor 3 (P33033 whole entry): as above
T1 sequence (Q01727 whole entry): as the sequence (Q01727 whole entry, looked up) above

The term Emax denotes the size of the effect at its maximum, as opposed to the concentration needed. What is called pEC50 is the EC50 on a negative log10 scale, so that one unit is a factor of ten. `CC(=O)N[C@@H](Cc1cnc[nH]1)C(=O)N[C@@H](CC(C)C)C(=O)N[C@@H](CCCNC(=N)N)C(=O)N[C@@H](Cc1c[nH]c2ccccc12)C(N)=O` (Ac-HLRW-NH2): the maximal effect (Emax) in test [1] and in test [4] was 25% each time. The pEC50 in [2] and in test [3] was < 4.00 each time.

For the compound `CC(=O)N[C@@H](Cc1cnc[nH]1)C(=O)N[C@H](C(=O)N[C@@H](CCCNC(=N)N)C(=O)N[C@@H](Cc1c[nH]c2ccccc12)C(N)=O)C(C)C` (Ac-HVRW-NH2), the pEC50 in test [5], in test [6], in test [2] and in [3] was < 4.00 throughout.

As for `CC(=O)N[C@@H](Cc1cnc[nH]1)C(=O)N[C@H](Cc1ccccc1)C(=O)N[C@@H](CCCNC(=N)N)C(=O)N[C@@H](Cc1c[nH]c2ccccc12)C(N)=O`, in test [7], the Emax was 30%.

Turning to `CC(=O)N[C@@H](Cc1c[nH]cn1)C(=O)N[C@@H](Cc1ccccc1)C(=O)N[C@@H](CCCN=C(N)N)C(=O)N[C@@H](Cc1c[nH]c2ccccc12)C(N)=O`, the pEC50 in [5] was 6.66.

As to `CC(=O)N1CCC[C@H]1C(=O)N[C@H](Cc1ccccc1)C(=O)N[C@@H](CCCN=C(N)N)C(=O)N[C@@H](Cc1c[nH]c2ccccc12)C(N)=O` (Ac-P[dF]RW-NH2), the pEC50 in test [8] was 5.40; in [5], 5.70; in [6], 5.68; in test [2], 6.00. Moreover, the values for the Emax in test [9] and in test [10] were 60% and 80%, respectively.

`CC(=O)N[C@@H](CCC(N)=O)C(=O)N[C@H](Cc1ccccc1)C(=O)N[C@@H](CCCNC(=N)N)C(=O)N[C@@H](Cc1c[nH]c2ccccc12)C(N)=O`: the pEC50 was 6.57 in [5], 5.80 in [6], 6.57 in [2] and 5.89 in test [3]. Besides, the fold change (FC) in [11] is 10. Moreover, the Emax in test [9] and in test [12] was 80% in each case.

Turning to `CC(=O)N[C@@H](Cc1cnc[nH]1)C(=O)N[C@H](Cc1ccccc1)C(=O)N[C@@H](CS)C(=O)N[C@@H](Cc1c[nH]c2ccccc12)C(N)=O`, the pEC50 in test [5] is 5.77; in [6], 6.40; in test [2], 5.51; in test [3], 5.22. Besides, the Emax in test [12] stood at 85%. The fold change (FC) in test [13] is 140; in test [14] it was 25.

On to `CC(=O)N[C@@H](Cc1cnc[nH]1)C(=O)N[C@H](Cc1ccccc1)C(=O)N[C@@H](CC(C)C)C(=O)N[C@@H](Cc1c[nH]c2ccccc12)C(N)=O`, for which the pEC50 in test [5] is 5.70; in test [6], 7.05; in [2], 5.42. In addition, the values for the maximum response (Emax) in test [9] and in [7] were 85% and 25%, respectively.

For `CC(=O)N[C@@H](Cc1cnc[nH]1)C(=O)N[C@H](Cc1ccccc1)C(=O)N[C@@H](CCCNC(=N)N)C(=O)N[C@@H](CC(C)C)C(N)=O`, the pEC50 in test [6] was 5.80; in [2], < 4.00. Further, the maximal effect (Emax) in test [4] turned out to be 40%; in [7] it was 20%.

Turning to `CC(=O)N[C@@H](Cc1cnc[nH]1)C(=O)N[C@H](Cc1ccccc1)C(=O)N[C@@H](CCCNC(=N)N)C(=O)NCC(N)=O`, the negative logarithm of the EC50 (pEC50) is < 4.00 in test [5], 5.89 in [6], < 4.00 in [2] and < 4.00 in test [3].

On to `CC(=O)N[C@@H](Cc1cnc[nH]1)C(=O)N[C@H](Cc1ccccc1)C(=O)N[C@@H](CCCNC(=N)N)C(=O)N[C@@H](CO)C(N)=O`, for which the pEC50 in test [6] was 5.80; in test [2], < 4.00. For the same compound, the Emax in test [4] was 75%; in test [7], 50%.

With `CC(=O)N[C@@H](Cc1cnc[nH]1)C(=O)N[C@H](Cc1ccccc1)C(=O)N[C@@H](Cc1cnc[nH]1)C(=O)N[C@@H](Cc1c[nH]c2ccccc12)C(N)=O`, the pEC50 is 6.52 in [5], 5.89 in [6], 6.30 in [2] and 5.40 in test [3]. Besides, the maximal effect (Emax) in test [12] was found to be 85%.

Turning to `CC(=O)N[C@@H](Cc1cnc[nH]1)C(=O)N[C@H](Cc1ccccc1)C(=O)N[C@@H](CCCNC(=N)N)C(=O)N[C@@H](CCCNC(=N)N)C(N)=O`, the pEC50 was 6.05 in [6], < 4.00 in [2] and < 4.00 in test [3]. In test [4], the Emax was determined as 20%.

`CC(=O)N[C@@H](Cc1ccc(O)cc1)C(=O)N[C@H](Cc1ccccc1)C(=O)N[C@@H](CCCNC(=N)N)C(=O)N[C@@H](Cc1c[nH]c2ccccc12)C(N)=O` (Ac-Y[dF]RW-NH2): the negative logarithm of the EC50 (pEC50) was 6.40 in test [5], 5.92 in [6], 7.05 in test [2] and 5.52 in [3]. Further, the Emax was 65% in test [9], 50% in [12] and 80% in test [10].

As to `CC(=O)N[C@@H](Cc1cnc[nH]1)C(=O)N[C@H](Cc1ccccc1)C(=O)N[C@@H](CCCN=C(N)N)C(=O)N[C@@H](Cc1c[nH]c2ccccc12)C(N)=O`, the pEC50 is 7.96 in [5] and 7.68 in [2].
